Experimental data taken from ChEMBL document CHEMBL1129817, “Novel water-soluble analogues retaining potent antitumor activity of RA-VII, a cyclic hexapeptide from Rubia plants” (Bioorg Med Chem Lett, 1997).
≈ marks a conversion by molar mass, not a printed value. Where “and” joins values, the source holds several entries; their conditions need not be identical. Equal entries are not always repeated.

What was measured:
KB = test: Compound was evaluated for cytotoxicity against human epidermoid carcinoma of nasopharynx (KB) cells; format: functional, cell-based
B16 [1] = test: Compound was evaluated for percent tumor volume against B16 melanoma in mice (T) at 3.13 mg/kg intravenous administration after 8 days ot that of control (C); format: functional, Mus musculus
B16 [2] = test: Compound was evaluated for percent tumor volume against B16 melanoma in mice (T) at 3.13 mg/kg intravenous administration after 11 days ot that of control (C); format: functional, Mus musculus
P388 [3] = test: Percentage of the median survival time of P388 leukemic mice (T) at intraperitoneal administration of 0.4 mg/kg dose to that of controls (C); format: functional, Mus musculus
Colon 26 [4] = test: Compound was evaluated for percent tumor volume against colon 26 cells in mice (T) at a dose of 3.13 mg/kg intravenous administration after 12 days ot that of control (C); format: functional, Mus musculus
B16 [5] = test: Compound was evaluated for percent tumor volume against B16 melanoma in mice (T) at 1.6 mg/kg intravenous administration after 11 days ot that of control (C); format: functional, Mus musculus
P388 [6] = test: Percentage of the median survival time of P388 leukemic mice (T) at intraperitoneal administration of 6.25 mg/kg dose to that of controls (C); format: functional, Mus musculus
Colon 26 [7] = test: Compound was evaluated for percent tumor volume against colon 26 cells in mice (T) at a dose of 0.8 mg/kg intravenous administration after 10 days ot that of control (C); format: functional, Mus musculus
Colon 26 [8] = test: Compound was evaluated for percent tumor volume against colon 26 cells in mice (T) at a dose of 0.8 mg/kg intravenous administration after 8 days ot that of control (C); format: functional, Mus musculus
Colon 26 [9] = test: Compound was evaluated for percent tumor volume against colon 26 cells in mice (T) at a dose of 0.8 mg/kg intravenous administration after 12 days ot that of control (C); format: functional, Mus musculus
Colon 26 [10] = test: Compound was evaluated for percent tumor volume against colon 26 cells in mice (T) at a dose of 3.13 mg/kg intravenous administration after 8 days ot that of control (C); format: functional, Mus musculus
Colon 26 [11] = test: Compound was evaluated for percent tumor volume against colon 26 cells in mice (T) at a dose of 3.13 mg/kg intravenous administration after 10 days ot that of control (C); format: functional, Mus musculus
B16 [12] = test: Compound was evaluated for percent tumor volume against B16 melanoma in mice (T) at 1.6 mg/kg intravenous administration after 8 days ot that of control (C); format: functional, Mus musculus
P388 [13] = test: Percentage of the median survival time of P388 leukemic mice (T) at intraperitoneal administration of 1.6 mg/kg dose to that of controls (C); format: functional, Mus musculus
Colon 26 [14] = test: Compound was evaluated for percent tumor volume against colon 26 cells in mice (T) at a dose of 1.6 mg/kg intravenous administration after 12 days ot that of control (C); format: functional, Mus musculus
B16 [15] = test: Compound was evaluated for percent tumor volume against B16 melanoma in mice (T) at 1.6 mg/kg intravenous administration after 13 days ot that of control (C); format: functional, Mus musculus
Colon 26 [16] = test: Compound was evaluated for percent tumor volume against colon 26 cells in mice (T) at a dose of 1.6 mg/kg intravenous administration after 10 days ot that of control (C); format: functional, Mus musculus
Colon 26 [17] = test: Compound was evaluated for percent tumor volume against colon 26 cells in mice (T) at a dose of 1.6 mg/kg intravenous administration after 8 days ot that of control (C); format: functional, Mus musculus
L1210 = test: Compound was evaluated for cytotoxicity against L1210 leukemia cells; format: functional, cell-based; settings: Mus musculus
[18] = system: KATO III stomach cancer cell line; test: Compound was evaluated for cytotoxicity against KATO-III gastric carcinoma cells; format: functional, cell-based; settings: Homo sapiens
P388 [19] = test: Percentage of the median survival time of P388 leukemic mice (T) at intraperitoneal administration of 0.8 mg/kg dose to that of controls (C); format: functional, Mus musculus
Colon 26 [20] = test: Compound was evaluated for percent tumor volume against colon 26 cells in mice (T) at a dose of 6.25 mg/kg intravenous administration after 8 days ot that of control (C); format: functional, Mus musculus
P388 [21] = test: Percentage of the median survival time of P388 leukemic mice (T) at intraperitoneal administration of 3.13 mg/kg dose to that of controls (C); format: functional, Mus musculus
Colon 26 [22] = test: Compound was evaluated for percent tumor volume against colon 26 cells in mice (T) at a dose of 6.25 mg/kg intravenous administration after 10 days ot that of control (C); format: functional, Mus musculus
Colon 26 [23] = test: Compound was evaluated for percent tumor volume against colon 26 cells in mice (T) at a dose of 6.25 mg/kg intravenous administration after 12 days ot that of control (C); format: functional, Mus musculus
B16 [24] = test: Compound was evaluated for percent tumor volume against B16 melanoma in mice (T) at 3.13 mg/kg intravenous administration after 13 days ot that of control (C); format: functional, Mus musculus

SMILES: COc1ccc(C[C@H]2C(=O)N[C@@H](C)C(=O)N(C)[C@H]3Cc4cccc(c4)Oc4cc(ccc4OCCN(Cc4ccccc4)Cc4ccccc4)C[C@@H](C(=O)N[C@H](C)C(=O)N[C@@H](C)C(=O)N2C)N(C)C3=O)cc1 [listing 1 of 2 here]
- IC50 (KB): 59 ng/mL (≈ 60.2 nM)

SMILES: CCN(CCOc1ccc2cc1Oc1cccc(c1)C[C@H]1C(=O)N(C)[C@@H](C2)C(=O)N[C@H](C)C(=O)N[C@@H](C)C(=O)N(C)[C@@H](Cc2ccc(OC)cc2)C(=O)N[C@@H](C)C(=O)N1C)c1ccccc1 [listing 1 of 2 here]
- IC50 (KB): 9.9 ng/mL (≈ 11 nM)

SMILES: COc1ccc(C[C@H]2C(=O)N[C@@H](C)C(=O)N(C)[C@H]3Cc4cccc(c4)Oc4cc(ccc4OCCN(C(C)C)C(C)C)C[C@@H](C(=O)N[C@H](C)C(=O)N[C@@H](C)C(=O)N2C)N(C)C3=O)cc1
- T/C (B16 [1]; 3.13 mg/kg): 57.5% and 32.1%
- T/C (B16 [2]): 32.1%
- T/C (P388 [3]): 151%
- T/C (Colon 26 [4]): 99.6%
- T/C (B16 [5]): 43.3%
- T/C (P388 [6]): 170%
- T/C (Colon 26 [7]): 83.4%
- T/C (Colon 26 [8]): 42.1%
- T/C (Colon 26 [9]): 136.3%
- T/C (Colon 26 [10]): 34.5%
- T/C (Colon 26 [11]): 38.5%
- T/C (B16 [12]): 55.9%
- T/C (P388 [13]): 157%
- T/C (Colon 26 [14]): 143.1%
- T/C (B16 [15]): 69.7%
- T/C (Colon 26 [16]): 57.1%
- T/C (Colon 26 [17]): 41.5%

SMILES: CCN(CC)CCOc1ccc2cc1Oc1cccc(c1)C[C@H]1C(=O)N(C)[C@@H](C2)C(=O)N[C@H](C)C(=O)N[C@@H](C)C(=O)N(C)[C@@H](Cc2ccc(OC)cc2)C(=O)N[C@@H](C)C(=O)N1C
- IC50 (KB): 10 ng/mL (≈ 11.7 nM)

SMILES: COc1ccc(C[C@H]2C(=O)N[C@@H](C)C(=O)N(C)[C@H]3Cc4cccc(c4)Oc4cc(ccc4OCCN4CCCCCC4)C[C@@H](C(=O)N[C@H](C)C(=O)N[C@@H](C)C(=O)N2C)N(C)C3=O)cc1 [listing 1 of 2 here]
- T/C (P388 [3]): 112%
- T/C (P388 [6]): 137%
- T/C (P388 [13]): 123%

SMILES: COc1ccc(C[C@H]2C(=O)N[C@@H](C)C(=O)N(C)[C@H]3Cc4cccc(c4)Oc4cc(ccc4OCCN(Cc4ccccc4)Cc4ccccc4)C[C@@H](C(=O)N[C@H](C)C(=O)N[C@@H](C)C(=O)N2C)N(C)C3=O)cc1 [listing 2 of 2 here]
- Activity (P388 [3]): 105%
- Activity (P388 [6]): 134%
- Activity (P388 [13]): 119%

SMILES: CCN(CCOc1ccc2cc1Oc1cccc(c1)C[C@H]1C(=O)N(C)[C@@H](C2)C(=O)N[C@H](C)C(=O)N[C@@H](C)C(=O)N(C)[C@@H](Cc2ccc(OC)cc2)C(=O)N[C@@H](C)C(=O)N1C)c1ccccc1 [listing 2 of 2 here]
- T/C (P388 [3]): 116%
- T/C (P388 [6]): 150%
- T/C (P388 [13]): 133%

SMILES: COc1ccc(C[C@H]2C(=O)N[C@@H](C)C(=O)N(C)[C@H]3Cc4cccc(c4)Oc4cc(ccc4OC)C[C@@H](C(=O)N[C@H](C)C(=O)N[C@@H](C)C(=O)N2C)N(C)C3=O)cc1 [listing 1 of 2 here]
- IC50 (L1210): 1.2 ng/mL (≈ 1.56 nM)
- IC50 (KB): 2.3 ng/mL (≈ 2.98 nM)
- IC50 [18]: 2.9 ng/mL (≈ 3.76 nM)

SMILES: COc1ccc(C[C@H]2C(=O)N[C@@H](C)C(=O)N(C)[C@H]3Cc4cccc(c4)Oc4cc(ccc4OC)C[C@@H](C(=O)N[C@H](C)C(=O)N[C@@H](C)C(=O)N2C)N(C)C3=O)cc1 [listing 2 of 2 here]
- T/C (P388 [19]): 144%
- T/C (B16 [1]): 60%
- T/C (B16 [2]): 55.5%
- T/C (P388 [3]): 144%
- T/C (Colon 26 [4]): 85.6%
- T/C (B16 [5]): 62.4%
- T/C (Colon 26 [20]): 49%
- T/C (P388 [21]): 163%
- T/C (Colon 26 [10]): 48%
- T/C (Colon 26 [22]): 50.3%
- T/C (Colon 26 [11]): 60.9%
- T/C (B16 [12]): 65.8%
- T/C (P388 [13]): 152%
- T/C (Colon 26 [23]): 78%
- T/C (B16 [24]): 49.9%
- T/C (Colon 26 [14]): 88%
- T/C (B16 [15]): 85.1%
- T/C (Colon 26 [16]): 72.8%
- T/C (Colon 26 [17]): 55.8%

SMILES: COc1ccc(C[C@H]2C(=O)N[C@@H](C)C(=O)N(C)[C@H]3Cc4cccc(c4)Oc4cc(ccc4OCCN4CCCCCC4)C[C@@H](C(=O)N[C@H](C)C(=O)N[C@@H](C)C(=O)N2C)N(C)C3=O)cc1 [listing 2 of 2 here]
- IC50 (KB): 7.6 ng/mL (≈ 8.62 nM)
